Drawing on patent publication US6982270B1, “3,4-dihydro-(1H)quinazolin-2-one compounds as CSBP/p38 kinase inhibitors” (SmithKline Beecham Corporation, priority 1999, dated 2006), this text covers IC50 for one compound.

Each structure is given as a SMILES string. A value given as a limit tells only on which side of the number the result lay.

This experiment has as its target T1, CSBP/p38 (Homo sapiens, UniProt Q16539).
T1 construct: made in house; host or cells: yeast
The experiment can be described thus: CSBP/p38 Kinase Assay. Type of experiment: biochemical. Particulars: 32P transfer from ATP to EGFR-derived peptide T669; yeast-expressed, activated p38; 0.17 mM ATP; "this binding assay or a similar assay"; read-out: IC50 (positive inhibitory activity). How it is done:
This assay measures the CSBP/p38-catalyzed transfer of ^32p from [a−^32P]ATP to threonine residue in an epidermal growth factor receptor (EGFR)-derived peptide (T669) with the following sequence: […] (residues 661-681). (See Gallagher et al., “Regulation of Stress Induced Cytokine Production by Pyridinyl Imidazoles: Inhibition of CSBP Kinase”, BioOrganic & Medicinal Chemistry, 1997, 5, 49-64).
Reactions were carried in round bottom 96 well plate (from Coming) in a […] volume. Reactions contained (in final concentration): 25 mM Hepes, pH 7.5; 8 mM MgCl2; 0.17 mM ATP (the Km[ATP] of p38 (see Lee et al., Nature 300, n72 pg. 639-746 (December 1994)); 2.5 uCi of [g-32P]ATP; 0.2 mM sodium orthovanadate; 1 mM DTT; 0.1% BSA; 10% glycerol; 0.67 mM T669 peptide; and 24 nM of yeast-expressed, activated and purified p38. Reactions were initiated by the addition of [gamma-32P]Mg/ATP, and incubated for 25 min. at 37° C. Inhibitors (dissolved in DMSO) were incubated with the reaction mixture on ice for 30 minutes prior to adding the 32P-ATP. Final DMSO concentration was 0.16%. Reactions were terminated by adding 10 ul of 0.3 M phosphoric acid, and phosphorylated peptide was isolated from the reactions by capturing it on p81 phosphocellulose filters. Filters were washed with 75 mM phosphoric acids, and incorporated 32P was quantified using beta scintillation counter. […]

T1 sequence (Q16539 whole entry): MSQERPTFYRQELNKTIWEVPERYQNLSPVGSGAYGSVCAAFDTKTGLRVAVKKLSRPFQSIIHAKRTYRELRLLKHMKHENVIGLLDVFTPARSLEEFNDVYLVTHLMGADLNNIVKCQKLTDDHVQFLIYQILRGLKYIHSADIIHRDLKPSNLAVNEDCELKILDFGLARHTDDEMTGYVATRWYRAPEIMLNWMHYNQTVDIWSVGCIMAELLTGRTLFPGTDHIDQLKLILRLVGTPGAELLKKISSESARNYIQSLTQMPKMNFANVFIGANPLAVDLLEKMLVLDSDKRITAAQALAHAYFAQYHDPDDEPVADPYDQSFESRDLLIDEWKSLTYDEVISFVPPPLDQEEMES

One may read the IC50 as the point on the concentration scale where inhibition reaches its midpoint. For `O=C1NCc2cc(Nc3ccccc3)ccc2N1c1ccccc1` [Example 1, 1-Phenyl-2-oxo-3.4-dihydro-6-phenylaminoquinazoline], the IC50 is < 50 µM.
